Measured values: US20050245563A1 (Millennium Pharmaceuticals, Inc., priority 2003, published 2005)

Biological target: T1, human Chk1 (GST-Chk1) (Homo sapiens, UniProt O14757)
T1 construct: made in house; host or cells: insect cells (baculovirus, Bac-to-Bac)
T1 sequence (O14757 1-476): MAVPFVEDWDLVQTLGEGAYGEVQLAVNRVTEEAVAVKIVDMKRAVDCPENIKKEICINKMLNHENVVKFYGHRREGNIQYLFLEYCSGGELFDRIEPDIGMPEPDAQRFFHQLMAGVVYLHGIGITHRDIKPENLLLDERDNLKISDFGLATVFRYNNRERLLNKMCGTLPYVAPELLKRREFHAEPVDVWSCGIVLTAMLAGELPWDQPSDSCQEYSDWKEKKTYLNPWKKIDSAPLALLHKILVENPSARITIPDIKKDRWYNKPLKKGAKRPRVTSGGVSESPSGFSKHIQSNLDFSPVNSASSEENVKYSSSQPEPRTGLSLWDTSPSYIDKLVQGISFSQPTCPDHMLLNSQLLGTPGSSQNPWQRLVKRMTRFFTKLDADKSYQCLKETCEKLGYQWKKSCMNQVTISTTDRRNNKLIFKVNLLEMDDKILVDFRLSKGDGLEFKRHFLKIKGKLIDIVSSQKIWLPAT
Assay: Chk1 FlashPlate kinase assay
Format: biochemical
Conditions: 8.7 nM GST-Chk1, 1 uM ATP, 33P incorporation into peptide substrate
Experimental: Recombinant human Chk1 was expressed as a fusion protein with glutathione S-transferase at the amino-terminus (GST-Chk1) using standard baculovirus vectors and (Bac-to-Bac®) insect cell expression system purchased from GIBCO™ Invitrogen. Recombinant protein expressed in insect cells was purified using glutathione sepharose (Amersham Biotech) using standard procedures described by the manufacturer.
Chk1 FlashPlate® Kinase Assay:
Assays (25 μL) contained 8.7 nM GST-Chk1, 10 mM MES, 0.1 mM ethylene glycol-bis(β-aminoethylether)-N,N,N′,N′-tetracetic acid (EGTA, pH 8.0), 2 mM DTT, 0.05% Tween 20, 3 uM peptide substrate (Biotin-ILSRRPSYRKILND-free acid) (SEQ ID NO: 1), 1 uM ATP, 0.4 uCi ^33P-γ-ATP (NEN), 4% DMSO. Reactions were incubated for 30 minutes at room temperature, terminated with 50 μL of 50 mM EDTA and 90 μL were transferred to streptavidin-coated FlashPlates® (NEN) and incubated for 1 hour at room temperature. Plates were washed with phosphate buffered salaine containing 0.01% Tween-20 and 10 mM sodium pyrophosphate. Plates were dried, sealed with Topseal™ (NEN) and amount of ^33P incorporated into the peptide substate measure using a Packard Topcount® NXT™ scintillation counter with standard settings.

Compound	IC50 [µM]
Cc1n[nH]c2c1c(=O)n(CCCCN)c1ccc(Br)cc21 [Example 34, 5-(4-Amino-butyl)-8-bromo-3-methyl-1,5-dihydro-pyrazolo[4,3-c]quinolin-4-one]	< 1
Cc1[nH]nc2c1c(=O)n(CCCNC(=O)CC(C)C)c1ccccc21 [Example 35, 3-Methyl-N-[3-(3-methyl-4-oxo-2,4-dihydro-pyrazolo[4,3-c]quinolin-5-yl)-propyl]-butyramide]	< 1
Cc1n[nH]c2c1c(=O)n(CCCCNC(=O)c1ccccc1)c1ccc(Br)cc21 [Example 36, N-[4-(8-Bromo-3-methyl-4-oxo-1,4-dihydro-pyrazolo[4,3-c]quinolin-5-yl)-butyl]-benzamide]	< 1
Cc1n[nH]c2c1c(=O)n(CC1CCN(C(=O)OC(C)(C)C)CC1)c1ccc(Br)cc21 [Example 37, 4-(8-Bromo-3-methyl-4-oxo-1,4-dihydro-pyrazolo[4,3-c]quinolin-5-ylmethyl)-piperidine-1-carboxylic acid tert-butyl ester]	1 to 20
Cc1n[nH]c2c1c(=O)n(CC1CCNCC1)c1ccc(Br)cc21 [Example 39, 8-Bromo-3-methyl-5-piperidin-4-ylmethyl-1,5-dihydro-pyrazolo[4,3-c]quinolin-4-one]	< 1
Cc1n[nH]c2c1c(=O)n(CCCNC(=O)c1ccc(Cl)cc1)c1ccc(Cl)cc21 [Example 40, 4-Chloro-N-[3-(8-chloro-3-methyl-4-oxo-1,4-dihydro-pyrazolo[4,3-c]quinolin-5-yl)-propyl]-benzamide]	< 1
Cc1n[nH]c2c1c(=O)n(CC(C)CNC(=O)OC(C)(C)C)c1ccc(Br)cc21 (stereo not shown) [Example 41, [3-(8-Bromo-3-methyl-4-oxo-1,4-dihydro-pyrazolo[4,3-c]quinolin-5-yl)-2-methyl-propyl]-carbamic acid tert-butyl ester]	< 1
Cc1n[nH]c2c1c(=O)n(CC(C)CN)c1ccc(Br)cc21 (stereo not shown) [Example 42, 5-(3-Amino-2-methyl-propyl)-8-bromo-3-methyl-1,5-dihydro-pyrazolo[4,3-c]quinolin-4-one]	< 1
Cc1n[nH]c2c1c(=O)n(CCCNC(=O)OCc1ccccc1)c1ccc(Br)cc21 [Example 43, [3-(8-Bromo-3-methyl-4-oxo-1,4-dihydro-pyrazolo[4,3-c]quinolin-5-yl)-propyl]-carbamic acid benzyl ester]	< 1
Cc1ccc2c(c1)c1n[nH]c(C)c1c(=O)n2CCCNC(=O)OC(C)(C)C [Example 44, [3-(3,8-Dimethyl-4-oxo-2,4-dihydro-pyrazolo[4,3-c]quinolin-5-yl)-propyl]-carbamic acid tert-butyl ester]	< 1
Cc1ccc2c(c1)c1n[nH]c(C)c1c(=O)n2CCCN [Example 45, 5-(3-Amino-propyl)-3,8-dimethyl-2,5-dihydro-pyrazolo[4,3-c]quinolin-4-one]	< 1
Cc1n[nH]c2c1c(=O)n(C[C@@H](C)CNC(=O)OC(C)(C)C)c1ccc(Br)cc21 [Example 46, [3-(8-Bromo-3-methyl-4-oxo-1,4-dihydro-pyrazolo[4,3-c]quinolin-5-yl)-2-S-methyl-propyl]-carbamic acid tert-butyl ester]	< 1
Cc1n[nH]c2c1c(=O)n(C[C@@H](C)CN)c1ccc(Br)cc21 [Example 47, 5-(3-Amino-2-S-methyl-propyl)-8-bromo-3-methyl-1,5-dihydro-pyrazolo[4,3-c]quinolin-4-one]	< 1
Cc1n[nH]c2c1c(=O)n(CC1CCCNC1)c1ccc(Br)cc21 (stereo not shown) [Example 48, 8-Bromo-3-methyl-5-piperidin-3-ylmethyl-1,5-dihydro-pyrazolo [4,3-c]quinolin-4-one]	< 1
COCCc1[nH]nc2c1c(=O)n(CCCN)c1ccc(Cl)cc21 [Example 50, 5-(3-Amino-propyl)-8-chloro-3-(2-methoxy-ethyl)-2,5-dihydro-pyrazolo[4,3-c]quinolin-4-one]	< 1
Cc1n[nH]c2c1c(=O)n(CCCNCCc1ccccc1)c1ccccc21 [Example 51, 3-Methyl-5-(3-phenethylamino-propyl)-1,5-dihydro-pyrazolo[4,3-c]quinolin4-one]	< 1
Cc1n[nH]c2c1c(=O)n(CCNC(=O)OC(C)(C)C)c1ccc(Br)cc21 [Example 52, [2-(8-Bromo-3-methyl-4-oxo-1,4-dihydro-pyrazolo[4,3-c]quinolin-5-yl)-ethyl]-carbamic acid tert-butyl ester]	< 1

Compound	IC50 [µM]
Cc1n[nH]c2c1c(=O)n(CCN)c1ccc(Br)cc21 [Example 53, 5-(2-Amino-ethyl)-8-bromo-3-methyl-1,5-dihydro-pyrazolo[4,3-c]quinolin4-one]	< 1
Cc1[nH]nc2c1c(=O)n(CCCN)c1ccc([N+](=O)[O-])cc21 [Example 55, 5-(3-Amino-propyl)-3-methyl-8-nitro-2,5-dihydro-pyrazolo[4,3-c]quinolin-4-one]	< 1
Cc1n[nH]c2c1c(=O)n(CCCNC(=O)OC(C)(C)C)c1ccc(Br)cc21 [Example 56, [3-(8-Bromo-3-methyl-4-oxo-1,4-dihydro-pyrazolo[4,3-c]quinolin-5-yl)-propyl]-carbamic acid tert-butyl ester]	< 1
Cc1[nH]nc2c1c(=O)n(CCCN)c1ccc(Br)cc21 [Example 57, 5-(3-Amino-propyl)-8-bromo-3-methyl-1,5-dihydro-pyrazolo[4,3-c]quinolin-4-one]	< 1
COc1ccc2c(c1)c1n[nH]c(C)c1c(=O)n2CCCN [Example 58]	< 1
Cc1[nH]nc2c1c(=O)n(CCCN)c1ccc(O)cc21 [Example 59, 5-(3-Amino-propyl)-8-hydroxy-3-methyl-2,5-dihydro-pyrazolo[4,3-c]quinolin-4-one]	< 1
Cc1[nH]nc2c1c(=O)n(CCCNC(=O)c1ccc(Cl)cc1)c1ccccc21 [Example 60, 4-Chloro-N-[3-(3-methyl-4-oxo-2,4-dihydro-pyrazolo[4,3-c]quinolin-5-yl)-propyl]-benzamide]	< 1
Cc1[nH]nc2c1c(=O)n(CCCNC(=O)c1ccc([N+](=O)[O-])cc1)c1ccccc21 [Example 61, N-[3-(3-Methyl-4-oxo-2,4-dihydro-pyrazolo[4,3-c]quinolin-5-yl)-propyl]-4-nitro-benzamide]	< 1
Cc1[nH]nc2c1c(=O)n(CCCNC(=O)CCc1ccccc1)c1ccccc21 [Example 62, N-[3-(3-Methyl-4-oxo-2,4-dihydro-pyrazolo[4,3-c]quinolin-5-yl)-propyl]-3-phenyl-propionamide]	< 1
Cc1[nH]nc2c1c(=O)n(CCCNC(=O)c1ccc(F)cc1F)c1ccccc21 [Example 63, 2,4-Difluoro-N-[3-(3-methyl-4-oxo-2,4-dihydro-pyrazolo[4,3-c]quinolin-5-yl)-propyl]-benzamide]	< 1
Cc1[nH]nc2c1c(=O)n(CCCNC(=O)c1ccc(F)cc1)c1ccccc21 [Example 64, 4-Fluoro-N-[3-(3-methyl-4-oxo-2,4-dihydro-pyrazolo[4,3-c]quinolin-5-yl)-propyl]-benzamide]	< 1
Cc1[nH]nc2c1c(=O)n(CCCNC(=O)C1CCCCC1)c1ccccc21 [Example 65, Cyclohexanecarboxylic acid [3-(3-methyl-4-oxo-2,4-dihydro-pyrazolo[4,3-c]quinolin-5-yl)-propyl]-amide]	< 1
Cc1n[nH]c2c1c(=O)n(CCCNC(=O)Nc1ccccc1)c1ccccc21 [Example 66, 1-[3-(3-Methyl-4-oxo-1,4-dihydro-pyrazolo[4,3-c]quinolin-5-yl)-propyl]-3-phenyl-urea]	< 1
Cc1n[nH]c2c1c(=O)n(CCCCNC(=O)Nc1ccccc1)c1ccc(Br)cc21 [Example 67, 1-[4-(8-Bromo-3-methyl-4-oxo-1,4-dihydro-pyrazolo[4,3-c]quinolin-5-yl)-butyl]-3-phenyl-urea]	< 1
Cc1[nH]nc2c1c(=O)n(CCCNC(=O)c1ccc(C#N)cc1)c1ccccc21 [Example 68, 4-Cyano-N-[3-(3-methyl4-oxo-2,4-dihydro-pyrazolo[4,3-c]quinolin-5-yl)-propyl]-benzamide]	< 1
COc1ccc(C(=O)NCCCn2c(=O)c3c(C)[nH]nc3c3ccccc32)cc1 [Example 69, 4-Methoxy-N-[3-(3-methyl-4-oxo-2,4,5a,9a-tetrahydro-pyrazolo[4,3-c]quinolin-5-yl)-propyl]-benzamide]	< 1
Cc1[nH]nc2c1c(=O)n(CCCN)c1cc(Cl)ccc21 [Example 70, 5-(3-Amino-propyl)-7-chloro-3-methyl-2,5-dihydro-pyrazolo[4,3-c]quinolin-4-one]	< 1
